Source: ChEMBL document CHEMBL4706477, “Synthesis and Biological Evaluation of Calothrixins B and their Deoxygenated Analogues” (J Med Chem, 2018)
Calls of active or inactive are those of the source. The calls are words filed in the database; no cut-off is given here.

Assays:
NCI-H460 [1] = experiment: cells; details: Homo sapiens, NCI-H460, 48 h
Description: Antiproliferative activity against human NCI-H460 cells assessed as reduction in cell viability incubated for 48 hrs by sulphorhodamine B assay

Calf thymus DNA [2] = experiment: Binding affinity to calf thymus DNA assessed as bathochromic shift absorbance in absorption maximum at 3*10^-5 mol/L by double beam UV-Vis spectroscopic analysis; type: nucleic-acid assay; details: Bos taurus
SiHa = experiment: cells; details: Homo sapiens, 48 h
Description: Antiproliferative activity against human SiHa cells assessed as reduction in cell viability incubated for 48 hrs by sulphorhodamine B assay

MDA-MB-231 = experiment: cells; details: Homo sapiens, MDA-MB-231, 48 h
Description: Antiproliferative activity against human MDA-MB-231 cells assessed as reduction in cell viability incubated for 48 hrs by sulphorhodamine B assay

MCF7 = experiment: cells; details: Homo sapiens, MCF7, 48 h
Description: Antiproliferative activity against human MCF7 cells assessed as reduction in cell viability incubated for 48 hrs by sulphorhodamine B assay

Calf thymus DNA [3] = experiment: Binding affinity to calf thymus DNA assessed as hypochromic effect at 3*10^-5 mol/L by double beam UV-Vis spectroscopic analysis; type: nucleic-acid assay; details: Bos taurus
U-251 = experiment: cells; details: Homo sapiens, U-251, 48 h
Description: Antiproliferative activity against human U-251 cells assessed as reduction in cell viability incubated for 48 hrs by sulphorhodamine B assay

HCT-116 [4] = experiment: cells; details: Homo sapiens, HCT-116, 48 h
Description: Antiproliferative activity against human HCT-116 cells assessed as reduction in cell viability incubated for 48 hrs by sulphorhodamine B assay

HeLa [5] = experiment: cells; details: Homo sapiens, 48 h
Description: Antiproliferative activity against human HeLa cells assessed as reduction in cell viability incubated for 48 hrs by sulphorhodamine B assay

[6] = target: T1, DNA topoisomerase 2-alpha (Homo sapiens, UniProt P11388); experiment: Inhibition of human topoisomerase 2 assessed as inhibition of etoposide-induced DNA cleavage complex formation by measuring linear DNA formation at 30 to 50 uM incubated for 30 mins using pRYG DNA as substrate by agarose gel electrophoresis analysis; details: dose 30-50 µM
T1 sequence (P11388 whole entry): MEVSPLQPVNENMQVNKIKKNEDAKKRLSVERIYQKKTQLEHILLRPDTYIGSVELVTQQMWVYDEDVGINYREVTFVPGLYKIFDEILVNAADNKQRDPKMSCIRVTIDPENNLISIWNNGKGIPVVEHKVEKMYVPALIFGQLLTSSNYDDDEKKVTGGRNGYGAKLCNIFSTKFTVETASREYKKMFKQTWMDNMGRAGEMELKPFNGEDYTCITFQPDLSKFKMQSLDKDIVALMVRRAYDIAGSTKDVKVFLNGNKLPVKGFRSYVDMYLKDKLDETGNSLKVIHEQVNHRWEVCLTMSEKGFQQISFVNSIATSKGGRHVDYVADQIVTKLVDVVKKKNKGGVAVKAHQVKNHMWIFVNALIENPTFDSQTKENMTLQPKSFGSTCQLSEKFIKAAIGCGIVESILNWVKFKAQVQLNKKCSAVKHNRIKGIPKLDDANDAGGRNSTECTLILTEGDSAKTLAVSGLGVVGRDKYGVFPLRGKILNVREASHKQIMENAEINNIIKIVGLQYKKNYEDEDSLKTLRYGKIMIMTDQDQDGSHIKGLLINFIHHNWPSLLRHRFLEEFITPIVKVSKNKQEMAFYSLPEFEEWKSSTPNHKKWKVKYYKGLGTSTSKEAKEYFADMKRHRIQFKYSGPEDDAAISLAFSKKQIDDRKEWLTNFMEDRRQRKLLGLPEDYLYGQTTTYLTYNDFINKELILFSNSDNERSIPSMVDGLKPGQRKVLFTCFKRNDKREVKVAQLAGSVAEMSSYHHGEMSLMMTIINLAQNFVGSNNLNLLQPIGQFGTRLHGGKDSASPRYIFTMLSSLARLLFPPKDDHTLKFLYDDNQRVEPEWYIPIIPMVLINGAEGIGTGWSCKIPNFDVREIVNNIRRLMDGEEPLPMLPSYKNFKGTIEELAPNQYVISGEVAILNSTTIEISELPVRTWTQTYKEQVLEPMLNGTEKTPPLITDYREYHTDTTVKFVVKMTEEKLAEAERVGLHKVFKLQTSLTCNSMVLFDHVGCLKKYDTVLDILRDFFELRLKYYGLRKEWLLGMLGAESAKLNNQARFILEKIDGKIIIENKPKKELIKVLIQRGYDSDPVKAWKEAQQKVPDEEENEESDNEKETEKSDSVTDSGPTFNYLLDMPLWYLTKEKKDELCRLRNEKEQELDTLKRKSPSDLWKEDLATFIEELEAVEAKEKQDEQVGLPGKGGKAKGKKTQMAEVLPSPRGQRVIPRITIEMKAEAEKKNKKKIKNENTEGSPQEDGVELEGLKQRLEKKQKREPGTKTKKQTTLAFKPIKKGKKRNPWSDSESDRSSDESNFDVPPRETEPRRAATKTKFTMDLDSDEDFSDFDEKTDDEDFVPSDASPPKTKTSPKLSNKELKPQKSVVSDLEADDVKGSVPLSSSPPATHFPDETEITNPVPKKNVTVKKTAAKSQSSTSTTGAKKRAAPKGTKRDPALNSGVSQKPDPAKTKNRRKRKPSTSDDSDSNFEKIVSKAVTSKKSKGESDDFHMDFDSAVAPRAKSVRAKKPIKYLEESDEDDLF

A549 = experiment: Antiproliferative activity against human A549 cells assessed as reduction in cell viability incubated for 48 hrs by sulphorhodamine B assay; type: functional
[7] = target: T1, DNA topoisomerase 2-alpha; experiment: Inhibition of recombinant human topoisomerase 2 assessed as decrease in relaxation of supercoiled pBlue-Script KS(+) plasmid DNA incubated for 30 mins by ethidium bromide staining based gel electrophoresis method
HEK293 = experiment: Antiproliferative activity against human HEK293 cells assessed as reduction in cell viability incubated for 48 hrs by sulphorhodamine B assay; type: functional
[8] = target: T1, DNA topoisomerase 2-alpha; experiment: Inhibition of recombinant human topoisomerase 2 assessed as decrease in relaxation of supercoiled pBlue-Script KS(+) plasmid DNA at 200 uM incubated for 30 mins by ethidium bromide staining based gel electrophoresis method
[9] = target: T2, DNA topoisomerase 1 (Homo sapiens) (UniProt P11387); experiment: Inhibition of human topoisomerase 1 assessed as induction of negative supercoiled DNA using relaxed pBlue-Script KS(+) plasmid DNA as substrate measured after 15 mins by agarose gel electrophoresis analysis; details: dose 60-100 µM
T2 sequence (whole entry): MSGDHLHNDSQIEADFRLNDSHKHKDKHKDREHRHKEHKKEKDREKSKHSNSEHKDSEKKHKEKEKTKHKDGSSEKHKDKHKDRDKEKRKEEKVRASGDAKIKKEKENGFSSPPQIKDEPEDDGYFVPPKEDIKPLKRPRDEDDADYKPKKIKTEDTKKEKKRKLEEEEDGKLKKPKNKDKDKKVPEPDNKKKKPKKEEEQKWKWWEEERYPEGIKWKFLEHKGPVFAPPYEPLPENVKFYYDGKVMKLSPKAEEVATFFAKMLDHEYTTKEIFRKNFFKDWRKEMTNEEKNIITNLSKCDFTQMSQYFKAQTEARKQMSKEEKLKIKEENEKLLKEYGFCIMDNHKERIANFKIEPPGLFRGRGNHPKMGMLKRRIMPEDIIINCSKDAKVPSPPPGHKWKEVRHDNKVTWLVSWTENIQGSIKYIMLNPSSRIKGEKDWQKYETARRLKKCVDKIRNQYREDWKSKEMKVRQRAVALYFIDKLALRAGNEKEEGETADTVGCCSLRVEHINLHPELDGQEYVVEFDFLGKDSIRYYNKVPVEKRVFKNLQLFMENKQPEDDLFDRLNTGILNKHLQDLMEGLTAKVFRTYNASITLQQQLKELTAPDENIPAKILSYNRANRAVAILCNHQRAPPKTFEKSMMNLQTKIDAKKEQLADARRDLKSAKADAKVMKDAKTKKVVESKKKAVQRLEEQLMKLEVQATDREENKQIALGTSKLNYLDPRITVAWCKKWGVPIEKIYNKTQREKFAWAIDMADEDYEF

[10] = target: T1, DNA topoisomerase 2-alpha; experiment: Inhibition of recombinant human topoisomerase 2 assessed as decrease in relaxation of supercoiled pBlue-Script KS(+) plasmid DNA at 40 uM incubated for 30 mins by ethidium bromide staining based gel electrophoresis method relative to control
Jurkat = experiment: cells; details: Homo sapiens, 48 h
Description: Antiproliferative activity against human Jurkat cells assessed as reduction in cell viability incubated for 48 hrs by sulphorhodamine B assay

HCT-116 [11] = experiment: Induction of DNA damage in human HCT-116 cells assessed as tail length at 5 uM incubated for 48 hrs by alkaline Comet assay relative to control; type: functional, cell-based
HCT-116 [12] = experiment: Induction of cell cycle arrest in human HCT-116 cells assessed as accumulation of cells at G1 phase at 5 uM incubated for 48 hrs by propidium iodide staining based flow cytometry analysis; type: functional
HeLa [13] = experiment: Induction of apoptosis in human HeLa cells assessed as increase in cleaved PARP levels at 10 uM by Western blot analysis; type: functional, cell-based; details: time 6-48 hrs, TDE = time-dependent effect
HCT-116 [14] = experiment: cells; details: Homo sapiens, HCT-116, 48 h; remark: listed apart in the source
Description: Antiproliferative activity against human HCT-116 p53-/- cells assessed as reduction in cell viability incubated for 48 hrs by sulphorhodamine B assay

physchem [15] = details: octanol/buffer, pH 7.4
Description: Octanol/buffer distribution coefficient, log D of the compound at pH 7.4

HCT-116 [16] = experiment: Induction of cell cycle arrest in human HCT-116 cells assessed as accumulation of cells at G1 phase at 5 uM incubated for 3 to 20 hrs in presence of 0.3 uM mitotic inhibitor nocodazole by propidium iodide staining based flow cytometry analysis; type: functional; details: time 3-20 hrs
physchem [17] = details: octanol/water
Description: Octanol/water partition coefficient, log P of the compound

HCT-116 [18] = experiment: Induction of cell cycle arrest in human HCT-116 cells assessed as accumulation of cells at G2/M phase at 5 uM incubated for 3 to 20 hrs in presence of 0.3 uM mitotic inhibitor nocodazole by propidium iodide staining based flow cytometry analysis; type: functional; details: time 3-20 hrs
HCT-116 [19] = experiment: Induction of cell cycle arrest in human HCT-116 cells assessed as accumulation of cells at G2/M phase at 5 uM incubated for 20 hrs by propidium iodide staining based flow cytometry analysis; type: functional
NCI-H460 [20] = experiment: Induction of apoptosis in human NCI-H460 cells assessed as cleaved PARP levels at 1 uM incubated for 48 hrs by Western blot analysis; type: functional, cell-based
NCI-H460 [21] = experiment: Induction of cell death in human NCI-H460 cells at 0.1 uM incubated for 48 hrs by propidium iodide staining based flow cytometry analysis; type: functional
NCI-H460 [22] = experiment: Induction of DNA damage in human NCI-H460 cells incubated for 48 hrs by alkaline Comet assay; type: functional, cell-based
Calf thymus DNA [23] = experiment: Binding affinity to calf thymus DNA assessed as hyperchromic effect measured at 302 nm at 3*10^-5 mol/L by double beam UV-Vis spectroscopic analysis; type: nucleic-acid assay; details: Bos taurus
NCI-H460 [24] = experiment: Induction of apoptosis in human NCI-H460 cells assessed as morphological changes at 0.5 uM incubated for 48 hrs by acridine orange/propidium iodide double staining based fluorescence microscopy analysis; type: functional, cell-based
Calf thymus DNA [25] = experiment: Binding affinity to calf thymus DNA assessed as red shift absorbance measured at 258 nm at 3*10^-5 mol/L by double beam UV-Vis spectroscopic analysis; type: nucleic-acid assay; details: Bos taurus
NCI-H460 [26] = experiment: Induction of cell cycle arrest in human NCI-H460 cells assessed as accumulation of cells at G1 phase incubated for 48 hrs by propidium iodide staining based flow cytometry analysis; type: functional; details: dose 0.1-2 µM
Calf thymus DNA [27] = experiment: Binding affinity to calf thymus DNA assessed as hyperchromic effect measured at 258 nm at 3*10^-5 mol/L by double beam UV-Vis spectroscopic analysis; type: nucleic-acid assay; details: Bos taurus
HCT-116 [28] = experiment: Anticlonogenic activity against human HCT-116 cells assessed as inhibition of colony formation at 0.1 to 5 uM incubated for 48 hrs followed by compound washout with PBS and measured after 14 days by crystal violet staining based analysis; type: functional, cell-based; details: dose 0.1-5 µM
HCT-116 [29] = experiment: Induction of cell cycle arrest in human HCT-116 cells assessed as accumulation of cells at G2/M phase at 5 uM incubated for 48 hrs by propidium iodide staining based flow cytometry analysis; type: functional

Compound	GI50 (NCI-H460 [1])	GI50 (SiHa)	GI50 (MDA-MB-231)	GI50 (MCF7)	GI50 (U-251)	GI50 (HCT-116 [4])	GI50 (HeLa [5])	GI50 (A549)	inhibition [7]	GI50 (HEK293)	Activity [9]	GI50 (Jurkat)	Activity (HCT-116 [11])	logD (physchem [15])	logP (physchem [17])	Activity (HCT-116 [18])	further results
CN(C)CCCNc1nc2ccccc2c2cc3[nH]c4ccccc4c3cc12	1500 nM	1150 nM	1000 nM	2750 nM	1350 nM	1750 nM	1100 nM										Activity (Calf thymus DNA [2]): 15 nm; Activity (Calf thymus DNA [3]): 40%
Cc1c2cnc3ccccc3c2cc2[nH]c3ccccc3c12	10500 nM	> 4000 nM	> 4000 nM	> 4000 nM	> 4000 nM	15000 nM	360 nM	> 4000 nM	Dose-dependent effect	> 4000 nM	Dose-dependent effect	> 4000 nM					inhibition [6]: Active; IC50 [7]: 19100 nM; IC90 [7]: 28800 nM; inhibition [8]: 100%; inhibition [10]: 98%
O=C1c2[nH]c3ccccc3c2C(=O)c2cnc3ccccc3c21 [CALOTHRIXIN B]	> 4000 nM	3500 nM	160 nM	260 nM	2250 nM	650 nM	470 nM					> 4000 nM	Active	-2.11	-1.81	Active	Activity (HCT-116 [12]): Active; Activity (HeLa [13]): Tde; GI50 (HCT-116 [14]): 2550 nM; Activity (HCT-116 [16]): inactive
Fc1ccc2c(c1)ncc1cc3c(cc12)[nH]c1ccccc13	1 nM	> 4000 nM	950 nM	20 nM	> 4000 nM	6000 nM	20 nM	> 4000 nM	inactive	5.2 nM	Dose-dependent effect	> 4000 nM	Active	1.61	1.91	Active	Activity (HCT-116 [19]): Active; Activity (NCI-H460 [20]): Active; Activity (NCI-H460 [21]): Active; Activity (NCI-H460 [22]): Dose-dependent effect; Activity (Calf thymus DNA [23]): 41%; Activity (NCI-H460 [24]): Active; Activity (Calf thymus DNA [25]): 14 nm; Activity (NCI-H460 [26]): Dose-dependent effect; Activity (Calf thymus DNA [27]): 46%; inhibition (HCT-116 [28]): Active; Activity (HCT-116 [29]): Active
